Source: PMC3849192, “A Simple Method for Assessing Free Brain/Free Plasma Ratios Using an In Vitro Model of the Blood Brain Barrier” (PLoS ONE, 2013)
Read-outs that look alike come from different tables or passages of the source.

Experiments:
[1] = Fraction unbound brain (fu,br), brain homogenate equilibrium dialysis
Method: The degree of brain binding was assessed by equilibrium dialysis. Brain homogenate (10%) was spiked with test compound at 1 µM in triplicate. […] The plate was then placed in a shaker/incubator to equilibrate for 18 hrs at 37°C. […] After the addition of 50 µl of buffer to the brain homogenate samples, 150 µl of acetonitrile was added to each sample. Finally, 50 µl of water was added to all buffer and brain homogenate samples. The plates were centrifuged and the supernatant analyzed by LC-MS/MS.

[2] = Fraction unbound brain (fu,br), brain slice method
Method: Rats (male Sprague-Dawley) were decapitated under isoflurane anesthesia and the brains were removed carefully and immersed in ice-cold oxygenated physiological buffer at pH7.4. A 6 mm coronal section was cut with a razor and mounted with cyanoacrylate glue onto the tray of the microslicer (DTK-Zero 1 Microslicer, Dosak) after which six to eight 300 µm coronal slices from striatal areas were prepared. […] The compounds were dissolved at 1 µM in the buffer and the solution was incubated with the slice for 5 h.
After 5 h, the brain slices were weighed and homogenized in 9 volumes (w/v) of ECF buffer with a sonicator (SONICS VCX 500 and VCX 130). The slice homogenates in ECF buffer were stored at −20°C prior to analysis. The concentrations of the test compound in the brain slice homogenate and in the ECF buffer was determined by LC-MS/MS.
The unbound volume of distribution Vu,brain, or free fraction fu,brain was calculated according to the following equations: [drawing 1] [drawing 2] where Cslice, CECF and V0 are amount of drug in the slice, the drug concentration in the ECF (representing the drug concentration in the brain ECF, i.e. the free concentration), and the water adhesion of the brain slice. V0 has been estimated using ^14C -inulin in a separate experiment in which brain slices were incubated for 1, 2, and 4 min. V0 was obtained from brain slice uptake – inulin time profile (apparent zero-time intercept).

[3] = tested on: in vitro BBB model (co-culture of bovine brain capillary endothelial cells and rat glial cells); assay: In vitro BBB co-culture model, Cu,br/Cu,pl ratio; details: for In vitro Cu,br/Cu,pl Mean 1 h: 2 µM in luminal compartment, abluminal/luminal concentration at 1 h; for In vitro Cu,br/Cu,pl Mean steady-state: steady-state ratio computed from 1 h data with the blue-norna steady-state calculator
Method: Figure 1 Schematic diagram of the experimental protocol. After 12 days of coculture in cell culture medium, both compartments of the in vitro BBB model consisting of a coculture of brain capillary endothlial cells and rat primary glial cells were filled with Hepes-buffered Ringer’s solution and the compounds dissolved at 2 µM were added in the luminal compartment (i.e donor). The presence of glial cells in the abluminal compartment was used to reproduce the non specific binding to brain tisssue within the brain prenchyma in vivo. After 1 hour, aliquots were taken from both compartments. In vitro Cu,br/Cu,pl at 1 h were calculated by dividing the concentration in the abluminal compartment (∼Cu,br) by the concentration in the luminal compartment (∼Cu,pl) at 1 h. The experimental data at 1 h were computed using the blue-norna steady-state calculator to generate the in vitro steady-state Cu,br/Cu,pl.
One hour after the addition of compounds dissolved at 2 µM in the luminal (i.e upper) compartment, aliquots were taken from both compartments previously filled with Hepes-buffered Ringer’s solution at the beginning of the experiment. […] The concentrations in both compartments of the in vitro assay after 1 h were computed using […] blue-norna.com to generate the in vitro steady-state Cu,br/Cu,pl.
The method of Dehouck et al. was used with minor modifications (Fig. 1). Bovine brain endothelial cells isolated from capillary fragments were cocultured with primary mixed glial cells from newborn Sprague–Dawley rats. The glial cells were isolated according to the method of Booher and Sensenbrenner and cultured for 3 weeks, plated on the bottom of cell culture clusters containing six wells each. The endothelial cells were seeded onto collagen-coated polycarbonate cell culture inserts (4.7 cm^2) (Corning Incorp. NY, USA), which were placed in the wells containing glial cells. The medium used for the coculture was Dulbecco’s modified Eagle’s medium supplemented with 10% calf serum, 10% horse serum, 2 mmol/L glutamine, 50 mg/L gentamicin and 1 µg/L basic fibroblast growth factor (Sigma). The medium was changed every second day. Experiments were usually initiated after 12 days of co-culture.
To monitor the integrity of the endothelial cell monolayer, the marker molecule [^14C] sucrose was added to the solution at a concentration of 0.05 µCi/ml. At the start of the transport experiments, buffered Ringer’s solution (pH = 7.4) was added to wells with glial cells. Inserts with brain endothelial cells were placed in these wells and drug solutions at 2 µM were added to the donor compartment. The plates were incubated for 1 h in a polymix shaker at 37°C with a low shaking velocity. Aliquots were taken from the donor compartment in the beginning and at the end of the experiments. The receiver compartments were sampled at the end of the experiments.
The amount of radiotracer in the abluminal compartment was measured in a liquid scintillation analyser (Packard Instrument Company, Meriden, USA). […] The concentrations of the test compound in all samples were analysed by MS/MS.
The mean free brain/plasma ratios were calculated from three individual experiments. One hour ratios were calculated by dividing the drug concentration in the receiver compartment by the free drug concentration in the donor compartment after 1 h. The experimental data at one hour (i.e concentration in both compartment at the beginning of the experiment and after 1 h) were computed using the blue-norna® steady-state calculator (www.blue-norna.com) to predict the in vivo steady-state Cu,br/Cu,pl ratios. For further details on this calculation method see file S1.
The in vivo steady-state Cu,br/Cu,pl were predicted from the in vitro experimental data collected after one hour according to the following equation: […]
Cdonor, t and Creceiver, t are the concentration of drug in the donor and receiver chambers at time t.

[4] = In vivo brain exposure (Cu,br/Cu,pl) under steady-state like conditions after intravenous administration; details: rat, i.v. bolus plus infusion; for In vivo Cu,br/Cu,pl (homog.) Mean steady-state: Cbr/Cpl x fubr/fupl with fu,br from brain homogenate; for In vivo Cu,br/Cu,pl (slice) Mean steady-state: Cbr/Cpl x fubr/fupl with fu,br from brain slice
Method: Rat plasma was obtained from Sprague-Dawley rats in-house. Plasma from three individuals was pooled and mixed with up to 4 compounds with a concentration of 10 µM each (in 0.1% DMSO). A 48-well dialysis apparatus (AstraZeneca, Mölndal) was used to determine the plasma free fraction. The dialysis membrane (AstraZeneca, Mölndal) was conditioned in Milli/Q water before use. […] The samples were incubated on an orbital shaker (4 mm in diameter and 100 rpm) at 37 °C for 18 hrs. […] After plasma protein precipitation by the addition of 150 µl of acetonitrile to each plasma sample in order to precipitate plasma proteins. The plates were centrifuged and the supernatant analyzed by LC-MS/MS. The fu in plasma was calculated from the ratio of the MS-area of the compound in the buffer to the MS-area of the compound in the plasma.
The CNS exposure of 92 compounds (i.e 30 drugs and 62 proprietary compounds) was assessed under steady-state like conditions after intravenous administration. The time to approach steady-state (taken as at least 3.5 half-lives) was determined from prior studies of the pharmacokinetics of individual compounds after intravenous administration. The rats were put in restraint cages and cannulated via the tail vein. On the day of the experiment, the rats received a bolus injection followed by infusion. The infusion rate and infusion time were determined separately for each compound. The test formulation was administered using an infusion pump (CMA/100 or Univentor 400 microinjection pump).
Blood samples (400 µL) were collected by rapidly anaesthetizing the rats and keeping them under anesthesia with isofluran. Blood was collected either through heart puncture, from the tail vein or the orbital venous plexus and put into EDTA tubes, which were immediately placed on ice and centrifuged within 30 min at 4°C for 5 min at 2000 g to obtain plasma. The plasma was transferred by glass or plastic pipettes to 1.5 ml MTP system topaz vials and immediately frozen to −70°C or lower and stored at −20°C until assayed.
After blood collection, the whole brain was rapidly removed from the animal skull and weighed after which it was frozen and stored at −20°C. Before analysis with LC-MS/MS, the brain samples were sonicated (SONICS Vibracell VCX 130) in Ringer solution (2-fold the brain weight; e.g. 1 gram brain plus 2 mL Ringer).
The unbound brain exposure was assessed as Cu,br/Cu,pl, which is the free brain-free plasma concentration ratio. The Cu,br/Cu,pl ratios were obtained from total brain plasma ratios (Ctot,br/Ctot,pl) by using in vitro determined fu,br and fu,pl values according to: [drawing 4]
Brain concentrations were corrected for residual blood volume using 13 µl/g based on the vascular space of the marker [14C]-sucrose.

Q: What does the source list for `CC(NC(C)(C)C)C(=O)c1cccc(Cl)c1` (stereo not drawn) [Buproprion]?
A: fubrain (homog.) Mean ([1]; brain homogenate (10%), 1 µM, equilibrium dialysis 18 hrs at 37°C): 0.1710; fubrain (slice) Mean ([2]; rat brain slices 300 µm, 1 µM, 5 h incubation): 0.1600; In vitro Cu,br/Cu,pl Mean 1 h [3]: 0.24; In vitro Cu,br/Cu,pl Mean steady-state [3]: 0.51; In vivo Cu,br/Cu,pl (homog.) Mean steady-state [4]: 1.07; In vivo Cu,br/Cu,pl (slice) Mean steady-state [4]: 1.00

Q: For `Fc1ccc([C@@H]2CCNC[C@H]2COc2ccc3c(c2)OCO3)cc1` [Paroxetin], which “fubrain (homog.) Mean” value [1] is on record?
A: 0.0039

Q: What about the “fubrain (slice) Mean” value [2] of the same compound?
A: 0.0024

Q: And the “In vitro Cu,br/Cu,pl Mean 1 h” value [3]?
A: 0.08

Q: And the “In vitro Cu,br/Cu,pl Mean steady-state” value [3]?
A: 0.79

Q: What about the “In vivo Cu,br/Cu,pl (homog.) Mean steady-state” value [4] of the same compound?
A: 0.86

Q: What about the “In vivo Cu,br/Cu,pl (slice) Mean steady-state” value [4] of the same compound?
A: 0.53
